# Test results from US20080194611A1, “Modulation of Cell Barrier Dysfunction” (priority 2005, published 2008).
# What was measured:
# [1] = cited from earlier work
# [2] = system: PA-I lectin/adhesin expression in P. aeruginosa 27853/PLL-EGFP
# P. aeruginosa biofilm = format: cell-based, Pseudomonas aeruginosa
# MDCK cells = format: cell-based
# [3] = system: PA-I lectin/adhesin expression in P. aeruginosa PA27853 and PAO1
# P. aeruginosa = format: cell-based, Pseudomonas aeruginosa
# [4] = system: pyocyanin (PCN) production in P. aeruginosa; format: cell-based, Pseudomonas aeruginosa
# [5] = system: Human pulmonary microvascular endothelial cell; format: cell-based; details: for effect of agonist alone on endothelial cell barrier function (TER): HPMVEC
# S1P3 receptor = experiment: Tyrosine phosphorylation (transactivation) of the S1P3 receptor; format: cell-based, Human; details: pre-treatment
# [6] = in vivo; cited from earlier work
# [7] = cited from earlier work; remark: listed apart in the source
# [8] = system: P. aeruginosa whole cells and membrane fractions; experiment: ELISA / immunofluorescence binding of cytokines to P. aeruginosa cells and membrane fractions; design: species or system Pseudomonas aeruginosa; details: for binding to P. aeruginosa membrane fractions: PAO1 membranes, ELISA
# Description: IFN-γ direct binding to a protein on the surface of P. aeruginosa, in the course of virulence activation, was also investigated. ELISA binding assays were performed by first coating microtiter plates with P. aeruginosa (strain PAO1), then adding recombinant human IFN-γ (rH IFN-γ), followed by biotin-labeled anti-IFN-γ antibody. […] In order to localize the binding site of IFN-γ to P. aeruginosa (PAO1), equal protein concentrations of membrane and cytosol fractions of P. aeruginosa were prepared and coated onto ELISA microtiter plates.
# [9] = target: T1, outer membrane protein OprF (Pseudomonas aeruginosa, UniProt P13794); experiment: Binding of IFN-γ to purified OprF; details: dose-dependent
# T1 sequence (P13794 25-350): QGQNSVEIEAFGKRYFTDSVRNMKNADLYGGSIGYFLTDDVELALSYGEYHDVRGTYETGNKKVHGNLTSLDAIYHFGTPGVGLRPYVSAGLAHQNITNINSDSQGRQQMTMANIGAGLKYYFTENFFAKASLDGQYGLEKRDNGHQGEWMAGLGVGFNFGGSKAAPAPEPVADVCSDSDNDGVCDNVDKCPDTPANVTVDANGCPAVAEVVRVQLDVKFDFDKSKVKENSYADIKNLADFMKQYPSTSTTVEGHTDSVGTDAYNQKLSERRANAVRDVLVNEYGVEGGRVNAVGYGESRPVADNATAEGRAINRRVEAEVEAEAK
# Caco-2 cell monolayers = experiment: Barrier dysregulation of Caco-2 monolayers by PA27853 in the presence of IFN-γ; format: cell-based, Human; details: after five hours of incubation
# Description: In addition, strains were exposed to apical media from Caco-2 cells basolaterally exposed to single and combinations of the various epithelial-derived cytokines. […] Media from Caco-2 cells exposed to various combinations of these cytokines had no effect on PA-I expression. […] Using both ELISA, immunofluorescence microscopy, and flow cytometry, the binding characteristics of IFNγ were determined for both whole bacteria and membrane fractions of P. aeruginosa. […] These effects were also observed with strain PAO1. […] It has been difficult to immunoprecipitate a significant quantity of this protein from PA27853, but it has been determined that this protein can also be immunoprecipitated from E. coli. Next, IFN-γ binding specificity, to whole bacterial cells, was determined, using reiterative binding studies in the presence of various gram-negative bacterial strains, including P. aeruginosa. […] Finally, in order to determine if PA-I was functionally expressed in […] in the presence IFN-γ, PA27853 was inoculated onto Caco-2 cell monolayers in the presence of IFN-γ and the effect on barrier dysregulating dynamics of PA27853 against this cell line were assessed to determine if IFN-γ shifted the dynamics. IFN-γ enhanced the barrier dysregulating effect of PA27853 against the intestinal epithelium after five hours of incubation by about 20%. […]
# [10] = system: quorum sensing signaling system of P. aeruginosa PAO1; experiment: Quorum sensing activation in PAO1 (rhlI Northern blot, C4-HSL in supernatants); format: cell-based, Pseudomonas aeruginosa
compound,measurement,setting,value
"C[C@H]1CN(C[C@H](Cc2ccccc2)C(=O)NCC(=O)O)CCC1(C)c1cccc(O)c1 (single isomer, unassigned; (+)) [formula (II), (+)-Z-NHCH2 C(O)OH]",solubility in water,[1],low solubility in water except at low or high pH conditions
Nc1ncnc2c1ncn2[C@@H]1O[C@H](COP(=O)(O)OP(=O)(O)O)[C@@H](O)[C@H]1O [ADP],PA-I expression,[2],no evident inducing effect
Nc1ncnc2c1ncn2[C@@H]1O[C@H](COP(=O)(O)O)[C@@H](O)[C@H]1O [AMP],PA-I expression,[2],no evident inducing effect
Nc1ncnc2c1ncn2[C@@H]1O[C@H](COP(=O)(O)OP(=O)(O)OP(=O)(O)O)[C@@H](O)[C@H]1O [ATP],PA-I expression,[2],no evident inducing effect
C=CCN1C[C@H](C)N([C@H](c2ccc(C(=O)N(CC)CC)cc2)c2cccc(O)c2)C[C@H]1C [BW373U86],biofilm production,P. aeruginosa biofilm,~180 % of PA27853 induction
same,additional TEER decrease,MDCK cells,~25%
same,PA-I expression judged by fluorescence of the GFP reporter strain,[2],greatest effect on PA-I expression
same,PA-I protein expression,[3],induced a response equal to C4-HSL
same,response to express PA-I,[3],induce a robust response
"CCCC(=O)N[C@H]1CCOC1=O [C4-HSL, C4-homoserine lactone]",effect on bacterial growth,P. aeruginosa,Neither compound had an effect on bacterial growth
same,PCN production in seven additional mvfR mutants,[4],none of these mutants produced PCN
same,PCN production in ΔGacA and ΔMvfR,[4],unable to restore PCN production
same,PCN production in ΔGacA/gacA,[4],"decreased, albeit minimally"
same,PCN production in ΔMvfR/mvfR,[4],further increased the already elevated PCN production
same,PCN production versus cell density,[4],shift in the production of PCN at lower cell densities
same,PCN response of MvfR mutant 121-332,[4],"did not respond to U-50,488 or C4-HSL"
same,"PCN response of MvfR mutants 1-292, 1-291, 1-283",[4],"did not respond to U-50,488 and C4-HSL"
same,PCN response of MvfR mutants 1-299 and 1-293,[4],"responded to U-50,488 and C4-HSL with enhanced PCN production"
same,dynamic tracking of PCN production in ΔMvfR/mvfR,[4],demonstrated a shift in PCN production at lower cell densities
same,dynamics of PCN production in ΔGacA/gacA,[4],had no effect on the dynamics of PCN production
same,PA-I expression,[3],induced PA-I expression
same,increase in PA-I expression,[3],~16 fold
C[C@@H](O)C(=O)O [D-lactate],PA-I promoter activity (fluorescence),[2],had no effect on PA-I promoter activity
"C[C@@H](NC(=O)[C@@H](N)Cc1ccc(O)cc1)C(=O)NCC(=O)N(C)[C@@H](Cc1ccccc1)C(=O)NCCO [DAMGO, [D-Ala^2, N-MePhe^4, Gly^5-ol]]",effect of agonist alone on endothelial cell barrier function (TER),[5],induced endothelial cell barrier disruption in a dose-dependent manner
"CC(=O)N[C@H]1C(O)O[C@H](CO)[C@H](O)[C@@H]1O (stereo partly drawn) [GalNac, N-acetylgalactoside]",PA-I mRNA increase on dense adherence to Caco-2 cells,[3]; Caco-2,nearly completely abolished
same,PA-I mRNA induced by Caco-2 cell membrane fractions,[3]; Caco-2,attenuated
C[C@H](O)C(=O)O [L-lactate],PA-I promoter activity (fluorescence),[2],had no effect on PA-I promoter activity
"COC(=O)c1ccccc1N [MA, methyl anthranilate]","effect on U-50,488-enhanced PCN production",[4],"inhibited the ability of U-50,488 to enhance PCN production"
"Oc1ccc2c3c1O[C@H]1c4[nH]c5c(c4C[C@@]4(O)[C@@H](C2)N(CC2CC2)CC[C@]314)C[C@@]1(O)[C@H]2Cc3ccc(O)c4c3[C@@]1(CCN2CC1CC1)[C@H]5O4 [NOR, nor-binaltorphimine]","effect on U-50,488-enhanced PCN production",[4],attenuates enhanced PCN production
same,"dose that completely inhibits U-50,488-enhanced PCN production",[4]; PAO1,200 µM
CC(C)(C)n1nc(-c2ccc(Cl)cc2)c2c(N)ncnc21 [PP2],effect on S1P-mediated endothelial cell barrier enhancement,[5]; Src family kinase inhibition,did not affect S1P-mediated endothelial cell barrier enhancement
same,effect on agonist-induced barrier disruption,[5]; Src family kinase inhibition,blocked agonist-induced barrier disruption
Nc1ncnc2c1ncn2[C@@H]1O[C@H](CO)[C@@H](O)[C@H]1O [adenosine],PA-I expression,[2],increased
same,PA-I promoter activity (fluorescence),[2],enhanced fluorescence
same,exposure time before PA-I promoter activity was observed,[2],6 h
same,"PA-I expression, compound alone in media",[3],none of the other compounds alone had any effect
OC[C@H]1O[C@@H](n2cnc3c(O)ncnc32)[C@H](O)[C@@H]1O [inosine],"change in PA-I expression over time, magnitude versus adenosine",[2],effect of inosine greater
same,concentration inducing PA-I expression relative to adenosine,[2],10 fold less than adenosine
same,onset of PA-I expression versus adenosine,[2],at an earlier time point and at lower cell densities (OD) compared to adenosine
C=CCN1CC[C@]23c4c5ccc(O)c4O[C@H]2C(=O)CC[C@@]3(O)[C@H]1C5 [naloxone],effect on morphine- and DAMGO-induced S1P3 receptor transactivation,S1P3 receptor,blocked the effects of morphine and DAMGO
same,crossing of the blood-brain barrier,[6],crosses the blood-brain barrier easily
same,lipid solubility / polarity,[7],fairly lipid-soluble
same,effect on morphine-induced PA-I lectin/adhesin expression,[2],significantly attenuated
same,effect on MS- and DAMGO-induced endothelial cell barrier disruption,[5],blocked
same,barrier protection with thrombin and LPS challenge,[5]; 0.1 μM,did not display the same endothelial cell barrier-protective effects as MNTX
EGF: human cytokine tested for membrane binding,binding to P. aeruginosa membrane fractions,[8],No binding was observed
IFN-γ: human recombinant interferon gamma,binding to purified OprF,[9],directly binds
same,enhancement of barrier dysregulating effect of PA27853,Caco-2 cell monolayers,about 20%
same,pyocyanin production,[4],increased pyocyanin production
same,C4-HSL synthesis,[10]; 100 ng/ml IFN-γ,increased
same,rhlI gene transcription,[10]; Northern blot,induced rhl1 transcription
same,PA-I expression (fluorescence),[2],significant increase in PA-1 expression
same,binding to whole bacterial cells,[8]; PA27853,high binding affinity
same,ELISA binding to whole fixed cells,[8]; PAO1,avidly bound to whole fixed cells of P. aeruginosa in a dose-dependent manner
same,bacterial cells that bound IFN-γ (immunofluorescent imaging),[8]; PAO1,73%±3.2%
same,binding to P. aeruginosa membrane fractions,[8],preferentially bound to membrane fractions
same,PA-I expression,[3],induced PA-I expression
same,"PA-I expression, compound alone in media",[3],induced a direct effect on PA-I expression
same,PA-I mRNA and protein,[3],increased
same,"PA-I protein expression, dose dependence",[3],"dose dependent, with the greatest increase seen with 100 ng/ml"
same,lecA (PA-I) mRNA by Northern blot,[3],induced lecA mRNA
same,response to express PA-I,[3],induce a robust response
IL-4: human cytokine,binding to P. aeruginosa membrane fractions,[8],No binding was observed
IL-6: human cytokine,"PA-I expression, compound alone in media",[3],none of the other compounds alone had any effect
IL-8: human cytokine,"PA-I expression, compound alone in media",[3],none of the other compounds alone had any effect
IL-10: human cytokine,binding to P. aeruginosa membrane fractions,[8],No binding was observed
TGF-β,binding to P. aeruginosa membrane fractions,[8],No binding was observed
TNF-α,binding to P. aeruginosa membrane fractions,[8],No binding was observed
same,"PA-I expression, compound alone in media",[3],none of the other compounds alone had any effect
Thrombin,effect of agonist alone on endothelial cell barrier function (TER),[5],induced a rapid transient decrease in endothelial cell barrier function
adenosine deaminase,PA-I expression after adenosine depletion of HIF-1-α-activated Caco-2 media,[2]; Caco-2,even greater increase in PA-I expression
dynorphin,PCN production,[4],enhanced PCN production in a dose-dependent manner
